According to publication PMC4138410 (Bioorganic & medicinal chemistry, 2014):
pKi: −log10 of the molar value. Like-named read-outs stand apart in the source and are kept apart here.

Legend:
BoNT/A LC [1] = target: T1, BoNT/A LC (Clostridium botulinum, UniProt P0DPI0); assay: biochemical; type: biochemical
BoNT/A LC [2] = target: T1, BoNT/A LC; type: biochemical
BoNT/A LC [3] = target: T1, BoNT/A LC; assay: biochemical; type: biochemical; remark: listed apart in the source
BoNT/A LC [4] = target: T1, BoNT/A LC; type: biochemical; remark: listed apart in the source
[5] = pH 7.4; for %GSH remaining at 30 min: 0.5 h
BoNT/A = conditions: cited from earlier work

T1 sequence (P0DPI0 2-425 limits assumed): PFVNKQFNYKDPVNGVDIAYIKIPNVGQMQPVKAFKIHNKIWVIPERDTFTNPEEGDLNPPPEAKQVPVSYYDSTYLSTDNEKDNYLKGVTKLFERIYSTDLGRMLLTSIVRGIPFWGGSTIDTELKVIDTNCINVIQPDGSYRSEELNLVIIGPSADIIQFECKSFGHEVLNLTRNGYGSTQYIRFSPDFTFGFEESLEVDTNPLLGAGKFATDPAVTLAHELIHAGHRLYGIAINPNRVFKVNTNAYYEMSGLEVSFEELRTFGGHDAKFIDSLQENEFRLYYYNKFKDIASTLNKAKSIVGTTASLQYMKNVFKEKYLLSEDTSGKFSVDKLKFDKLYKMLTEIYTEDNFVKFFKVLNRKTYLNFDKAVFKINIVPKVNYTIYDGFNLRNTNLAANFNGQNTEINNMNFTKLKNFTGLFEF

## CCN1C(=O)C=CC1=O [N-ethylmaleimide, reference compound]
BoNT/A LC [1]
  inactivation of BoNT/A in SNAPtide screen (in words): weakly inactivated
  inhibitory rank in SNAPtide assay (in words): one of the weakest inhibitors tested

## O=C1C=CC(=O)C(CC(=O)O)=C1 [Compound 22, 2-(3,6-Dioxocyclohexa-1,4-dien-1-yl)acetic acid]
BoNT/A LC [2]
  inhibition of BoNT/A in 66-mer assay (in words): fairly active
BoNT/A LC [3]
  kinact/KI: 2.5 M⁻¹ s⁻¹

## chicoric acid [CA]
BoNT/A LC [4]
  effect on BQ-mediated inactivation of BoNT/A (in words): not affected

## C=CC(=O)Nc1cccnc1 [Compound 41]
BoNT/A LC [2]
  inhibition of BoNT/A in 66-mer assay (in words): weakly inhibited
BoNT/A LC [3]
  irreversible/time-dependent inactivation in 66-mer assay (in words): no irreversible inhibition

## COc1ccc(OC)c(CNCC(=O)Nc2cccc(OCc3ccccc3)c2)c1 [Compound 33, N-[3-(Benzyloxy)phenyl]-2-[(2,5-dimethoxybenzyl)amino]acetamide]
BoNT/A LC [2]
  inhibition of BoNT/A in 66-mer assay (in words): well tolerated

## O=C1C=C(Cl)C(=O)C=C1Cl [Compound 1, 2,5-diCl-BQ]
BoNT/A LC [1]
  effect on catalytic activity (in words): completely abrogated catalytic activity
[5]; 10 s
  %GSH remaining at 10 s: 0%
[5]
  %GSH remaining at 30 min: 0%

## CC1=CC(=O)C=C(C)C1=O [Compound 25, 2,6-diMe-BQ]
[5]
  %GSH remaining at 30 min: 0%

## COC1=CC(=O)C=C(OC)C1=O [Compound 24, 2,6-diOMe-BQ]
[5]
  %GSH remaining at 30 min: 0%

## COc1ccc(OC)c(Nc2cccc(C(=O)NCc3ccc(Oc4ccccc4)cc3)n2)c1 [Compound 34, 6-[(2,5-Dimethoxyphenyl)amino]-N-(4-phenoxybenzyl)picolinamide]
BoNT/A LC [2]
  inhibition of BoNT/A in 66-mer assay (in words): decrease in activity

## O=C(NCc1ccc(-c2ccccc2)cc1)c1nc[nH]n1 [Compound 39, N-([1,1′-Biphenyl]-4-ylmethyl)-1H-1,2,4-triazole-3-carboxamide]
BoNT/A LC [2]
  inhibition of BoNT/A in 66-mer assay (in words): high IC50 values

## CC1=CC(=O)C=CC1=O [Compound 12, 2-Me-BQ]
BoNT/A LC [1]
  kinact/KI: 3.5 M⁻¹ s⁻¹

## O=C1C=CC(=O)C(CNCC(=O)Nc2cccc(OCc3ccccc3)c2)=C1 [Compound 30, N-[3-(Benzyloxy)phenyl]-2-{[(3,6-dioxocyclohexa-1,4-dien-1-yl)methyl]amino}acetamide]
BoNT/A LC [2]
  fold increase in potency by addition of BQ vs analogous amino acetamide: 26 fold

## COC1=CC(=O)C(OC)=C(c2ccc(C)cc2)C1=O [Compound 21, 2,5-diOMe-3-Tol-BQ]
[5]
  %GSH remaining at 30 min: 49 (35) %
  %GSH remaining at 1 hour: 49 (35) %

## COc1ccc(OC)c(Cn2cnc(C(=O)NCc3ccc(-c4ccccc4)cc3)n2)c1 [Compound 38, N-([1,1′-Biphenyl]-4-ylmethyl)-1-(2,5-dimethoxybenzyl)-1H-1,2,4-triazole-3-carboxamide]
BoNT/A LC [2]
  inhibition of BoNT/A in 66-mer assay (in words): decrease in activity

## CS(=O)(=O)SCCCN [MTSPA, (3-aminopropyl)methanethiosulfonate]
BoNT/A
  pKi: 5.11

## O=C1C=CC(=O)c2c(O)ccc(O)c21 [Compound 13, 5,8-diOH-NQ]
[5]
  %GSH remaining at 30 min: 39 (26) %
  %GSH remaining at 1 hour: 39 (26) %

## O=C1C=CC(=O)C(Nc2cccc(C(=O)NCc3ccc(Oc4ccccc4)cc3)n2)=C1 [Compound 31, 6-[(3,6-Dioxocyclohexa-1,4-dien-1-yl)amino]-N-(4-phenoxybenzyl)picolinamide]
BoNT/A LC [2]
  fold increase in activity by adding the phenoxyphenyl fragment: 7 fold
  fold increase in potency by addition of BQ vs analogous amino acetamide: 21 fold

## NCC(=O)Nc1ccc(Oc2ccccc2)cc1 [Compound 28, 2-Amino-N-(4-phenoxyphenyl)acetamide]
BoNT/A LC [4]
  effect on BQ-mediated inactivation of BoNT/A (in words): competed

## O=C1C=CC(=O)c2cc(O)ccc21 [Compound 19, 6-OH-NQ]
[5]
  %GSH remaining at 30 min: 32 (22) %
  %GSH remaining at 1 hour: 32 (22) %

## O=C(NCc1ccc(Oc2ccccc2)cc1)c1ccccn1 [Compound 35, N-(4-phenoxybenzyl)picolinamide]
BoNT/A LC [2]
  inhibition of BoNT/A in 66-mer assay (in words): high IC50 values

## O=C1C=CC(=O)C(Cn2cnc(C(=O)NCc3ccc(-c4ccccc4)cc3)n2)=C1 [Compound 32, N-([1,1′-Biphenyl]-4-ylmethyl)-1-[(3,6-dioxocyclohexa-1,4-dien-1-yl)methyl]-1H-1,2,4-triazole-3-carboxamide]
BoNT/A LC [2]
  fold increase in potency by addition of BQ vs analogous amino acetamide: 64 fold

## O=C1C=CC(=O)C=C1 [Compound 3, BQ]
BoNT/A LC [3]
  irreversible/time-dependent inactivation in 66-mer assay (in words): comparable to the SNAPtide assay

## COc1cccc2c1C(=O)C=CC2=O [Compound 18, 5-OMe-NQ]
[5]
  %GSH remaining at 30 min: 27 (14) %
  %GSH remaining at 1 hour: 27 (14) %
